Data as given in patent publication US5591773A, “Inhibition of cataract formation, diseases resulting from oxidative stress, and HIV replication by caffeic acid esters” (priority 1994, dated 1997).
“Also recorded” adds a separate entry of the source.

Columns and labels:
[1] = system: TPA-induced H2O2 production in mouse skin; experiment: TPA-induced H2O2 production in skin of SENCAR mice; type: in vivo
Method: FIGS. 2A-2D. CAPE-mediated inhibition of TPA-induced oxidative processes in SENCAR mice. Mice were topically treated with 6.5 nmol CAPE 30 min prior to 6.5 nmol TPA, and this regimen was repeated 20 h later. Mice were sacrificed 1 h after the last treatment and the skin removed for determination of: (FIG. 2A) PMN infiltration (by measuring myeloperoxidase (MPO)); (FIG. 2B) H2 O2; (FIG. 2C) HMdUrd (HMdU); and (FIG. 2D) 8-OHdGua (8-OHdG), according to procedures described in the "Experimental Details" Section, infra. .quadrature., controls treated with acetone in place of CAPE and TPA; , treatment with acetone followed by TPA; .box-solid., treatment with CAPE followed by TPA. Results are expressed as mean ± SE (bars) from two experiments (2 mice/experiment) in the CAPE series. Data for acetone (ACT)- and TPA-treated mean values were collected from over 20 experiments.
C) MPO, H2 O2, and Oxidized DNA Bases. SENCAR mice were pretreated with CAPE for 30 min; then 6.5 nmol (4 μg) TPA/mouse topically applied to the dorsal skin. After 20 h, the CAPE and TPA treatment (1x) was repeated (2x treatment). One h after the second treatment, the mice were sacrificed by cervical dislocation, and 12.5-mm punches were obtained to be used separately for MPO and H2 O2 determinations. The remainder of the treated mouse skin or the combined skins from two mice were used for separation of epidermal cells. This was done by heating the skin at 55° C. for 30 s followed by rapid immersion into an ice-cold water bath (45). After the epidermis was scraped off, the presence of oxidized DNA base derivatives was measured in the epidermal DNA. All of these end points were analyzed by published procedures and are briefly described below.
Punches used for H2 O2 determination were immediately minced with scissors in cold 50 mM phosphate buffer, pH 7.0, containing 10 mM azide that is needed for inhibition of catalase. They were then homogenized, and centrifuged at 4° C. and the supernatants were stored at -80° C. for up to 1 week. H2 O2 was measured in freshly thawed supernatants using horseradish peroxidase-mediated oxidation of phenol red (21), and the results are expressed as nmol H2 O2 /cm^2 /10-min incubation. Although organic hydroperoxides also can be generated under these conditions (45), we find that H2 O2 constitutes a great majority of the oxidants generated because 60-85% of the oxidants produced are catalase inhibitable (21).
^a Mice were treated as described in the legend to FIG. 2, except tha

[2] = system: TPA-induced PMN infiltration in SENCAR mouse ears (MPO); experiment: TPA-induced PMN infiltration (MPO) in mouse ears; type: in vivo, SENCAR mice; conditions: for MPO in mouse ears, TPA only: TPA 0.4 nmol/ear, 5 h
Method: FIG. 3. Effect of CAPE on TPA-induced PMN infiltration and edema in SENCAR mouse ears. These were paired experiments, in which both ears of each mouse (8-9/group) were treated with 0.4 nmol TPA±CAPE in 20 μl acetone, and the mice were sacrificed 5 h later. (A) One ear was frozen for subsequent determination of MPO (a measure of PMN infiltration). (B) A punch (6 mm diameter) was taken from the second ear and weighed to measure edematous response (weight of sample minus weight of control). (A) Ears of each group (7-9/group) were separately minced and homogenized under different conditions as described in the "Experimental Details" Section, infra. MPO was determined in duplicate. MPO was undetectable in acetone controls and was 4.13±0.0 units/mg protein and 1.18±0.1 units/mg protein in the 2 homogenates of TPA-only-treated mice. CAPE-mediated inhibition was calculated versus the appropriate TPA-only sample, which was homogenized the same way. (B) Weights of ear punches (8-9/group, each determined separately). Acetone controls, 7.2±0.1 mg; TPA in acetone, 16.7±0.7 mg.
B) Edema Determination. Both ears of SENCAR mice (7-9 mice/group) were treated with 0.4 nmol TPA in 20 μl acetone alone or together with added 0.1 nmol, 0.3 nmol, or 1 μmol CAPE. […] The mice were sacrificed by cervical dislocation 5 h after treatment, and edema was measured on one mouse ear, while the second ear was immediately frozen and later analyzed for PMN infiltration by quantifying myeloperoxidase (MPO) (see below). Ear edema (increased weight of ear punches) was determined as previously described (24). Edema was expressed as mg/6 mm (diameter) ear punch±SE.
The assay for MPO was carried out according to the procedure of Metcalf et al. (53) with some modifications (20), and the results are expressed as units/cm^2, where a unit is defined as that degrading 1 μmol H2 O2 /min at 25° C. The presence of MPO in the mouse ears was measured in the homogenates. […] Each homogenate was analyzed in duplicate and the results are expressed as mean MPO (units/mg protein) ±SE for each of the homogenates.

bovine lens (opacity) = experiment: TPA-induced opacity of bovine lens; type: cell-based; conditions: 0.1 μM TPA, 24 h
Method: FIGS. 5A-5C. CAPE-mediated protection of bovine lens from TPA-induced opacity. Lenses were incubated with artificial aqueous humor only (FIG. 5A); incubated with 0.1 μM TPA (FIG. 5B); and pretreated with 1 μM CAPE for 30 min followed by 0.1 μM TPA (FIG. 5C) for 24 h. After incubation, the lenses were photographed against 3-mm grids.
B) Bovine Lens Bovine lenses were obtained from a New Jersey slaughterhouse 3 h after the animals were sacrificed. Lenses were immediately immersed in artificial aqueous humor (AAH; 130 mMNaCl, 5 mMKCl, 1 mM CaCl2, 0.5 mM MgCl2, 10 mM NaHCO3, 10 mM 4-(2-hydroxyethyl)-1-piperazineethanesulfonic acid (pH 7.3), and 2.5 mM D-glucose). Each of the bovine lenses in AAH (about 15 ml/lens) supplemented with 10 mM azide (a catalase inhibitor) was incubated with various amounts (0-1 μM) TPA at 37° C. for 24 h in the presence or absence of CAPE (1 μM), as described for use of other chemopreventive agents (31). For comparison, the lenses were also incubated with glucose (2.5 mM)/glucose oxidase (25 μM), a H2 O2 -generating system.
In some experiments, at the end of incubation [lenses in (a) AAH only (controls), (b) AAH+0.1 μM TPA, and (c) AAH+1 μM CAPE (30 min)+0.1 μM TPA] at 37° C. for 24 h, the lenses were photographed against a 3-mm grid.

Row | SMILES | H2O2 ([1]; CAPE 6.5 nmol then TPA 6.5 nmol, 2x, (5 experiments), SE 2.2 on next line) | inhibition of TPA-induced H2O2 formation ([1]; CAPE 6.5 nmol, TPA 6.5 nmol, 2x, SENCAR mouse skin) | H2O2 ([1]; CAPE 650 nmol then TPA 6.5 nmol, 2x, (5 experiments), SE 0.6 on next line) | H2O2 levels at high dose (in words) ([1]; CAPE 650 nmol/treatment vs 6.5 nmol) | suppression of TPA-induced PMN infiltration, ear ([2]; CAPE 0.1 nmol/ear, TPA 0.4 nmol) | prevention of lens opacification (in words) (bovine lens (opacity); 1 μM CAPE) | H2O2 ([1]; TPA alone, 6.5 nmol, SE 0.7 on next line) | MPO in mouse ears, TPA only ([2]; first of 2 homogenates) | MPO in mouse ears, TPA only ([2]; second of 2 homogenates) | lens opacity (in words) (bovine lens (opacity))
1 | O=C(/C=C/c1ccc(O)c(O)c1)OCCc1ccccc1 [CAPE, Caffeic acid phenethyl ester] | 15.7 nmol/cm^2 skin | 86% | 11.6 nmol/cm^2 skin | further decreased | ~50% | almost completely prevented opacification of the lens; also recorded: suppressed formation of TPA-induced H2 O2 formation and opacification of lenses | – | – | – | –
2 | CCCCCCCCCCCCCC(=O)O[C@@H]1[C@@H](C)[C@@]2(O)[C@@H](C=C(CO)C[C@]3(O)C(=O)C(C)=C[C@@H]23)[C@@H]2C(C)(C)[C@]12OC(C)=O [TPA, 12-O-tetradecanoylphorbol-13-acetate] | – | – | – | – | – | – | 31.5 nmol/cm^2 skin | 4.13±0.0 units/mg protein | 1.18±0.1 units/mg protein | caused opacity of the lens
